Where a name gives a salt, the structure may show the parent alone.
Tested on: obese rhesus monkeys
Experiment: 6-month dose escalation study in obese rhesus monkeys
Format: in vivo, rhesus monkey
Conditions: 3 mg/kg dose bid, in each monkey
Protocol: The compound of Example 66 was examined in a Rhesus model. […] HDLc increased by more than 40% in each monkey at the 3 mg/kg dose. […] Serum TG concentrations decreased by more than 30% in each monkey. Fasting insulin decreased by more than 20% in each monkey. Serum fibrinogen concentrations decreased by 10 20%, with peak activity observed at doses of 0.3 and 1 mg/kg.

In the case of `Cc1cc(SCc2sc(-c3ccc(C(F)(F)F)cc3)nc2C)ccc1OCC(=O)O` [Example 66, 2-{2-Methyl-4-[({4-methyl-2-[4-(trifluoromethyl)phenyl]-1,3-thiazol-5-yl}methyl)sulfanyl]phenoxy}acetic Acid], the HDLc increase is reported as “more than 40%”.

Same assay, conditions: 0.1, 0.3, 1, and 3 mg/kg bid for 28 days each

In the case of `Cc1cc(SCc2sc(-c3ccc(C(F)(F)F)cc3)nc2C)ccc1OCC(=O)O` [Example 66, 2-{2-Methyl-4-[({4-methyl-2-[4-(trifluoromethyl)phenyl]-1,3-thiazol-5-yl}methyl)sulfanyl]phenoxy}acetic Acid], the “HDLc change with each dose” value is reported as “raised HDLc with each dose”.

Same assay, conditions: dose escalation 0.1-3 mg/kg bid

With `Cc1cc(SCc2sc(-c3ccc(C(F)(F)F)cc3)nc2C)ccc1OCC(=O)O` [Example 66, 2-{2-Methyl-4-[({4-methyl-2-[4-(trifluoromethyl)phenyl]-1,3-thiazol-5-yl}methyl)sulfanyl]phenoxy}acetic Acid] the “LDLc particle composition (NMR analysis of lipoprotein particles)” value was “shift in the LDLc composition to fewer and larger LDLc particles”.

Same assay, conditions: in each monkey

For `Cc1cc(SCc2sc(-c3ccc(C(F)(F)F)cc3)nc2C)ccc1OCC(=O)O` [Example 66, 2-{2-Methyl-4-[({4-methyl-2-[4-(trifluoromethyl)phenyl]-1,3-thiazol-5-yl}methyl)sulfanyl]phenoxy}acetic Acid], the Fasting insulin decrease was “more than 20%”.

For `Cc1cc(SCc2sc(-c3ccc(C(F)(F)F)cc3)nc2C)ccc1OCC(=O)O` [Example 66, 2-{2-Methyl-4-[({4-methyl-2-[4-(trifluoromethyl)phenyl]-1,3-thiazol-5-yl}methyl)sulfanyl]phenoxy}acetic Acid], the “Serum TG concentration decrease” value was “more than 30%”.

Target: T1, hPPARδ (Homo sapiens, UniProt Q03181)
T1 construct: polyHis; made in house; host or cells: E. coli
T1 sequence (Q03181 211-439 limits assumed): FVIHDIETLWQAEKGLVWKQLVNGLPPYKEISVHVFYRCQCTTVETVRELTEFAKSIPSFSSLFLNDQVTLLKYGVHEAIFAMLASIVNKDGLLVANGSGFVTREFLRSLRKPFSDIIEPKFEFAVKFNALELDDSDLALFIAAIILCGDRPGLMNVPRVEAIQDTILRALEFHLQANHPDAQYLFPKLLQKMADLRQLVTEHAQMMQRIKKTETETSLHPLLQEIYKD
Experiment: Scintillation Proximity Assay (SPA) binding to PPAR ligand binding domain
Conditions: radioligand GW 2433 for PPARδ, receptor subtype not named in the result sentence, read-out: Apparent pKi (converted)
Protocol: Compounds were tested for their ability to bind to hPPARγ hPPARα, or PPARδ using a Scintillation Proximity Assay (SPA). The PPAR ligand binding domain (LBD) was expressed in E. coli as polyHis tagged fusion proteins and purified. The LBD was then labeled with biotin and immobilized on streptavidin-modified scintillation proximity beads. The beads were then incubated with a constant amount of the appropriate radio ligand (^3H-BRL 49653 for PPARγ, 2-(4-(2-(2,3-Ditritio-1-heptyl-3-(2,4-difluorophenyl)ureido)ethyl)phenoxy)-2-methylbutanoic acid (described in WO/008002) for hPPARα and GW 2433 (see Brown, P. J et al. Chem. Biol. 1997, 4, 909-918. For the structure and synthesis of this ligand) for PPARδ) and variable concentrations of test compound, and after equilibration the radioactivity bound to the beads was measured by a scintillation counter. The amount of nonspecific binding, as assessed by control wells containing 50 μM of the corresponding unlabelled ligand, was subtracted from each data point. For each compound tested, plots of ligand concentration vs. CPM of radio ligand bound were constructed and apparent Ki values were estimated from nonlinear least squares fit of the data assuming simple competitive binding. […]

`COC(=O)COc1ccc(SCc2sc(-c3ccc(C(F)(F)F)cc3)nc2C)cc1` [Example 61, Methyl 2-{4-[({4-Methyl-2-[4-(trifluoromethyl)phenyl]-1,3-thiazol-5-yl}methyl)sulfanyl]phenoxy}acetate] gave a Ki greater than 316 nM.

Tested on: not listed separately
Experiment: Stability at ambient temperature (observation on isolated compound)
Format: physicochemical
Conditions: not given
Protocol: Example 37 was hydrolyzed as described in general procedure 3 to afford the title compound (45%) as a yellow solid: mp 124-126° C.; 1H-NMR (acetone-d6) δ 2.47 (s, 3H), 3.09 (s, 3H), 408(s, 2H), 5.25 (s, 2H), 6.70 (d, 2H), 6.91 (d, 2H), 7.83 (d, 2H), 8.16 (d, 2H); MS m/z 437(M+1)−.

With `Cc1nc(-c2ccc(C(F)(F)F)cc2)sc1COc1ccc(N(C)CC(=O)O)cc1` [Example 38, N-Methyl-N-[4-(2-[4-Trifluromethylphenyl]-4-methyl-thiazole-5-ylmethoxy)phenyl]-acetic Acid] the “stability at ambient temperature” value was “unstable and gradually decomposed at ambient temperature”.

Tested on: not given
Experiment: not given
Conditions: not given

`Cc1nc(-c2ccc(C(F)(F)F)cc2)sc1CCOc1ccc(CCC(=O)O)cc1` [Example 14] and `Cc1nc(-c2ccc(C(F)(F)F)cc2)sc1CCOc1ccc(CC(=O)O)cc1` [Example 32] fall in the same range of melting point: 128 to 130 °C for the first, 128 to 130 °C for the second.

Compared with `Cc1cc(OCc2sc(-c3ccc(C(F)(F)F)cc3)nc2C)ccc1OCC(=O)O` [Example 54, 2-[2-Methyl-4-({4-methyl-2-[4-(trifluoromethyl)phenyl]-1,3-thiazol-5-yl}methoxy)phenoxy]acetic Acid], `Cc1nc(-c2ccc(C(F)(F)F)cc2)sc1COc1ccc(CC(=O)O)cc1Cl` [Example 36, 2-[3-Chloro-4-({4-methyl-2-[4-(trifluoromethyl)phenyl]-1,3-thiazol-5-yl}methoxy)phenyl]acetic Acid] is lower in melting point: 174 to 176 °C for the first, 126 to 127 °C for the second.

Compared with `COc1cc(CCC(=O)O)ccc1OCc1oc(-c2ccc(C(F)(F)F)cc2)nc1C` [Example 24], `COc1cc(CCC(=O)O)ccc1OCc1sc(-c2ccc(C(F)(F)F)cc2)nc1C` [Example 6, 3-[3-Methoxy-4-({4-methyl-2-[4-(trifluoromethyl)phenyl]-1,3-thiazol-5-yl}methoxy)phenyl]propanoic Acid] is lower in melting point: 162 to 163 °C for the first, 150 to 152 °C for the second.

First: Cc1nc(-c2ccc(C(F)(F)F)cc2)sc1CSc1ccc(CC(=O)O)cc1 (as salt: salt) [Example 48, 2-{4-[({4-Methyl-2-[4-(trifluoromethyl)phenyl]-1,3-thiazol-5-yl}methyl)sulfanyl]phenyl}acetic Acid]
Second: Cc1nc(-c2ccc(C(F)(F)F)cc2)sc1CSc1ccc(OCC(=O)O)cc1 [Example 62, 2-{4-[({4-Methyl-2-[4-(trifluoromethyl)phenyl]-1,3-thiazol-5-yl}methyl)sulfanyl]phenoxy}acetic Acid]
The melting point of the first is higher: 202 to 203 °C for the first, 190 °C for the second.

Going from `Cc1cc(SCc2sc(-c3cc(C(F)(F)F)cc(C(F)(F)F)c3)nc2C)ccc1OCC(=O)O` [Example 79, 2-{2-Methyl-4-[({4-methyl-2-[3,5-bis(trifluoromethyl)phenyl]-1,3-thiazol-5-yl}methyl)sulfanyl]phenoxy}acetic Acid] to `Cc1cc(SCc2sc(-c3ccc(F)c(F)c3)nc2C)ccc1OCC(=O)O` [Example 77, 2-{2-Methyl-4-[({4-methyl-2-[3,4-difluorophenyl]-1,3-thiazol-5-yl}methyl)sulfanyl]phenoxy}acetic Acid], the melting point falls from 178 °C to 119 °C.

Compared with `Cc1cc(SCc2sc(-c3ccc(Cl)c(Cl)c3)nc2C)ccc1OCC(=O)O` [Example 75, 2-{2-Methyl-4-[({4-methyl-2-[3,4-dichlorophenyl]-1,3-thiazol-5-yl}methyl)sulfanyl]phenoxy}acetic Acid], `Cc1cc(SCc2sc(-c3ccc(Cl)cc3)nc2C)ccc1OCC(=O)O` [Example 71, 2-{2-Methyl-4-[({4-methyl-2-[4chlorophenyl]-1,3-thiazol-5-yl}methyl)sulfanyl]phenoxy}acetic Acid] is lower in melting point: 143 °C for the first, 109 °C for the second.

First: Cc1nc(-c2ccc(C(F)(F)F)cc2)oc1COc1ccc(CC(=O)O)cc1Cl (as salt: salt) [Example 50, 2-[3-Chloro-4-({4-methyl-2-[4-(trifluoromethyl)phenyl]-1,3-oxazol-5-yl}methoxy)phenyl]acetic Acid]
Second: Cc1nc(-c2ccc(C(F)(F)F)cc2)oc1COc1ccc(SCC(=O)O)cc1 [Example 44, 2-{[4-({4-Methyl-2-[4-(trifluoromethyl)phenyl]-1,3-oxazol-5-yl}methoxy)phenyl]sulfanyl}acetic Acid]
The melting point of the first is higher: 189 to 191 °C for the first, 138 to 140 °C for the second.

First: COc1cc(CC(=O)O)ccc1SCc1sc(-c2ccc(C(F)(F)F)cc2)nc1C (as salt: salt) [Example 52, 2-{3-Methoxy-4-[({4-methyl-2-[4-(trifluoromethyl)phenyl]-1,3-thiazol-5-yl}methyl)sulfanyl]phenyl}acetic Acid]
Second: Cc1nc(-c2ccc(C(F)(F)F)cc2)sc1COc1ccc(N(C)CC(=O)O)cc1 [Example 38, N-Methyl-N-[4-(2-[4-Trifluromethylphenyl]-4-methyl-thiazole-5-ylmethoxy)phenyl]-acetic Acid]
The melting point of the first is higher: 181 to 182 °C for the first, 124 to 126 °C for the second.

First: Cc1nc(-c2cccc(C(F)(F)F)c2)oc1COc1ccc(CCC(=O)O)cc1 [Example 16, 3-[4-({4-Methyl-2-[3-(trifluoromethyl)phenyl]-1,3-oxazol-5-yl}methoxy)phenyl]propanoic Acid]
Second: Cc1nc(-c2ccc(C(F)(F)F)cc2)oc1COc1ccc(/C=C/C(=O)O)cc1 [Example 22, (E)-3-[4-({4-Methyl-2-[4-(trifluoromethyl)phenyl]-1,3-oxazol-5-yl}methoxy)phenyl]-2-propenoic Acid]
The melting point of the first is lower: 134 to 135 °C for the first, 193 °C for the second.

Compared with `Cc1cc(SCc2sc(-c3ccc(F)cc3)nc2C)ccc1OCC(=O)O` [Example 73, 2-{2-Methyl-4-[({4-methyl-2-[4-fluorophenyl]-1,3-thiazol-5-yl}methyl)sulfanyl]phenoxy}acetic Acid], `Cc1sc(-c2ccc(C(F)(F)F)cc2)nc1CCOc1ccc(CCC(=O)O)cc1` [Example 10, 3-[4-(2-{5-Methyl-2-[4-(trifluoromethyl)phenyl]-1,3-thiazol-4-yl}ethoxy)phenyl]propanoic Acid] is higher in melting point: 45 to 46 °C for the first, 142 to 147 °C for the second.

`Cc1cc(SCc2sc(-c3ccc(Br)cc3)nc2C)ccc1OCC(=O)O` [Example 69, 2-{2-Methyl-4-[({4-methyl-2-[4-bromophenyl]-1,3-thiazol-5-yl}methyl)sulfanyl]phenoxy}acetic Acid] gave a melting point greater than 250 °C.
